# Measured values: PMC6838683, “Discovery of Human Signaling Systems: Pairing Peptides to G Protein-Coupled Receptors” (Cell, 2019)
# Positions of bridges follow the written chain, without caps; N, C: chain ends. Residues, ends and D or L forms follow the SMILES beside them.
# Assays:
# [1] = target: T1, GPR68 (Homo sapiens, UniProt Q15743); assay: Dynamic mass redistribution (DMR), concentration-response; format: cell-based; parameters: hIL-2Ra signal peptide (N); expressed in transfected cells; conditions: GPR68; dynamic mass redistribution, concentration-response; mean, SEM and n (3-4)
# Method in brief: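 Doxycycline-induced (0.1 μg/ml) SNAP-tagged receptors in TREx 293 cells, equilibrated 90 min at 22°C in HEPES-buffered HBSS, pH 7.4, with 0.1% DMSO. Peptide-evoked optical wavelength shift recorded for 60 min at 22°C, buffer/solvent corrected and quantified as area under the curve. Mean ± SEM of at least 3 independent experiments.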
# Target sequence in this assay (Q15743 2-365 limits assumed): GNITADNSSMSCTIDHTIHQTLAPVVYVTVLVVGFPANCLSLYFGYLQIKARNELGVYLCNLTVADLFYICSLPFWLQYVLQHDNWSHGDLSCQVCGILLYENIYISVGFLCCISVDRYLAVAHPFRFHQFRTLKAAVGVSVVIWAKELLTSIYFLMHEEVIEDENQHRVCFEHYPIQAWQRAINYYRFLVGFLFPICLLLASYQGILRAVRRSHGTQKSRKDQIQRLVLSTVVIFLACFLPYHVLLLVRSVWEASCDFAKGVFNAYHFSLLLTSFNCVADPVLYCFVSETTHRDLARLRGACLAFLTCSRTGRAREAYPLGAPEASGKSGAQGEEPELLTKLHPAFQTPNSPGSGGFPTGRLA
# [2] = target: T2, HA-OGR1 (GPR68) (Homo sapiens, UniProt Q15743); assay: Ca2+ mobilization assay (Fluo-4); format: cell-based; conditions: GPR68, calcium mobilization, mean, SEM and n (3-5) in separate columns
# T2 construct: HA; expressed in transfected cells
# T2 sequence (Q15743 whole entry): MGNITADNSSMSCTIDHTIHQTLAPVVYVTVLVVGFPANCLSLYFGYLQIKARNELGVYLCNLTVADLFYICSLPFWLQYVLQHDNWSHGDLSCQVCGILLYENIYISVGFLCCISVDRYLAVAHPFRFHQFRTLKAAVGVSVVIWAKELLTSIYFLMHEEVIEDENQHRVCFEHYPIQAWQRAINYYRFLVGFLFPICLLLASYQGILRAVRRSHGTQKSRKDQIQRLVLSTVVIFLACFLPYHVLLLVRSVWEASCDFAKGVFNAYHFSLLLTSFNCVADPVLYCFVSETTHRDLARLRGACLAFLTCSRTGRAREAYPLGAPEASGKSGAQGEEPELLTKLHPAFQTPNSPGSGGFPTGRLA
# Description: Peptide-dependent Ca^2+ mobilization responses were measured in HEK293 stable cell lines (HA-OGR1 (GPR68) and vector pcDNA) ([Saxena et al., 2012]) that were seeded in 96-well plates (1 × 10^5 cells/well) and cultured at 37°C with 5% CO2 to near confluence in DMEM with 10% FBS (Corning). Six hours prior to assay, medium was changed to pH 8.0 or pH 7.4 HAM’s F12 Nutrient Mixture (GIBCO) without FBS and transferred to a 37°C incubator without CO2. One hour prior to stimulation, cells were incubated in pH 8.0 or pH 7.4 HBSS with Ca^2+ and Mg^2+ (GIBCO), supplemented with 15 mM HEPES, 2 μM Fluo-4 AM (Invitrogen) and 1.5 mM probenecid ([…] to prevent Fluo-4 efflux) as described previously ([Pera et al., 2018]). Indicated peptides were pipetted using an automated system and emission signal was recorded at 525 nm after excitation at 485 nm using Flex Station III (Molecular Devices). Ca^2+ mobilization responses were determined by subtracting basal fluorescence from the net peak of agonist-induced fluorescence. Ionomycin (1 μM) was used to calculate the maximum Ca^2+ signal to normalize peptide-mediated responses.
# [3] = target: T1, GPR68; assay: Real-time receptor internalization (TR-FRET), concentration-response; format: cell-based; parameters: hIL-2Ra signal peptide (N); expressed in transfected cells; conditions: GPR68; real-time internalization; mean, SEM and n (3)
# Method in brief: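 Doxycycline-induced SNAP-tagged receptor cells had surface receptors labelled with Lumi4-Tb and fluorescein-O-acetic acid added. TR-FRET internalization after peptide addition was recorded for 60 min at 37°C (ex 340, em 520/615 nm). Area under the curve, normalized to plate average, gave concentration-response curves.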
# Target sequence in this assay (Q15743 2-365 limits assumed): as the sequence (Q15743 2-365 limits assumed) above
# [4] = target: T1, GPR68; assay: GloSensor cAMP assay (Gs), allosteric operational model fitting; format: cell-based; parameters: expressed in transfected cells; host or cells: HEK293T, transient (PEI), co-transfected with GloSensor cAMP plasmid; conditions: GPR68; GloSensor cAMP; mean, SEM and n (4)
# Description: GPR68-mediated cAMP signaling was measured using GloSensor cAMP assays as published previously ([Huang et al., 2015], [Yu et al., 2019]) with modifications as indicated below. Calcium- and magnesium-free HBSS was supplemented with different organic buffer reagents for different pH solutions, 20 mM 2-(N-morpholino)ethanesulfonic acid (MES, Alfa Aesar) for pH 6.00 – 6.70, 20 mM 4-(2-hydroxyethyl)-1-piperazineethanesulfonic acid (HEPES, Fisher) for pH 6.80 – 8.20, and 20 mM (tris(hydroxymethyl)methylamino)propanesulfonic acid (TAPS) for pH 8.30 – 8.60. The phosphodiesterase (PDE) inhibitor Ro 20-1724 (10 μM final, Cayman Chemical) was included in pH buffers to eliminate potential effect of PDE […]. HEK293T cells were transfected with a modified polyethylenimine (PEI, Polysciences) transfection method ([Longo et al., 2013]). For a 15-cm dish of HEK293T cells with 25 mL growth medium, 8 μg receptor DNA and 8 μg GloSensor DNA (Promega) were mixed in 1 mL of Opti-MEM medium followed by addition of 80 μL PEI reagents. The mixture was added to cells after 20 min incubation at room temperature. Overnight transfected cells were plated in poly-L-lysine (Sigma) coated 384-well white clear bottom plates (Greiner Bio-One, #781098) using DMEM (Corning) + 1% dialyzed FBS (Omega Scientific) for at least 6 h (up to 24 h). Cells were removed of medium before receiving 20 μL/well of 3.5 mM luciferin (Goldbio) prepared in assay buffer (HBSS, 20 mM TAPS, pH 8.40, 10 μM Ro 20-1724) for 1 h at 37°C. Luciferin loading solutions were removed and premixed drug solutions at desired pH conditions were added to cells (25 μL/well). Luminescence was measured 25-30 min after drug application. Results were normalized (basal and maximum responses in the absence of modulator were set to be 0 and 100%) and pooled for analysis using GraphPad Prism.
# All of the other parameters, including allosteric affinity cooperativity (α), allosteric modulator binding affinity KB, orthosteric agonist (protons) efficacy τA, system maximal response, and slope factor n were all globally shared for all datasets for each modulator. […] We therefore used an allosteric index, log(αβ/KB) ([Kenakin, 2017a]), which contains both allosteric binding affinity and cooperativity, to quantify the overall allosteric activity.
# Target sequence in this assay (Q15743 whole entry): as the sequence (Q15743 whole entry) above
# [5] = target: T3, MRGPRX2 (Homo sapiens, UniProt Q96LB1); assay: β-arrestin recruitment (Tango), known peptide receptors; format: cell-based; conditions: mean, n = 3
# T3 construct: host or cells: HTLA cells (HEK293-derived)
# T3 sequence (Q96LB1 1-330): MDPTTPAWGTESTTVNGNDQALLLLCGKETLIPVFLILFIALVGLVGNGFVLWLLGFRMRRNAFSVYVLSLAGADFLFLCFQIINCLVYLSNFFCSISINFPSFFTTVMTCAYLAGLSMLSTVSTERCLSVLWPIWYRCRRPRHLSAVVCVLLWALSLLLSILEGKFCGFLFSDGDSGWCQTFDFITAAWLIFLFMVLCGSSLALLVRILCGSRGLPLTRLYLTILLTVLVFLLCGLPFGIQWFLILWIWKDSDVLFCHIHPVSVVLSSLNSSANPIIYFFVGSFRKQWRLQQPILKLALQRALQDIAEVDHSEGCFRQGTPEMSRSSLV
# [6] = target: T4, MAS1 (Homo sapiens, UniProt P04201); assay: β-arrestin recruitment (Tango), indicative pairing; format: cell-based; conditions: mean, n = 3
# T4 construct: host or cells: HTLA cells (HEK293-derived)
# T4 sequence (P04201 1-325): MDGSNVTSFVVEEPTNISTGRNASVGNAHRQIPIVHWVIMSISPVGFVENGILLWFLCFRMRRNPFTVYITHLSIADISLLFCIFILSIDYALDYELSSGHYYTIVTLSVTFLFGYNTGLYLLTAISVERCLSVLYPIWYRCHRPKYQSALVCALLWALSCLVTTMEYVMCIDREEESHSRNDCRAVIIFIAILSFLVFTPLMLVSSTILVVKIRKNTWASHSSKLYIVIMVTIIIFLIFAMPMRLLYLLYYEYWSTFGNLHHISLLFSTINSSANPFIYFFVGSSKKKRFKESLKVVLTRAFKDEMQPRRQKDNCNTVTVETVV
# Description: The peptide library was additionally screened against 120 GPCR targets in parallel, including all available orphan receptors and 27 known class A peptide receptors using the Tango assay platform ([Kroeze et al., 2015]). Briefly, HTLA cells (a HEK293 cell line stably expressing a tTA-dependent luciferase reporter and a β-arrestin2-TEV fusion gene) were plated 10,000 cells/well in poly-L-lysine–coated clear-bottom white 384-well plates in DMEM supplemented with 10% FBS, 100 U/ml penicillin and 100 μg/ml streptomycin, 2 μg/ml puromycin and 100 μg/ml hygromycin B. 24 hr later, cells were transfected with Tango GPCR constructs using the calcium phosphate method ([Jordan et al., 1996]). The next day, culture medium was changed to DMEM + 1% dFBS and 10 μM peptides were added for overnight stimulation. Bright-Glo solution (Promega) was incubated for 15–20 min at room temperature, and luminescence was counted using a Trilux luminescence counter (Wallac).
# For subsequent peptide validation experiments using Tango assays, HTLA cells were transiently transfected in 10 cm dishes with the receptor of interest using polyethylenimine (PEI) ([Longo et al., 2013]). After 24 hr, 25,000 cells/well were plated in clear bottom, white-walled 384-well plates. Assays were performed as described above, with luminescence measured using an EnSpire 2300 Multimode plate reader (PerkinElmer). Luminescence counts were exported into Excel and were analyzed using GraphPad Prism 7.
# [7] = test system: 120 GPCR targets, including all available orphan receptors and 27 known class A peptide receptors; assay: Peptide library screen, β-arrestin recruitment (Tango, fold change, 10 μM); format: cell-based, human; conditions: for Active at: (activity in b-arrestin recruitment assays): Tango, receptor(s) at which the known library peptide was active, among its known GPCR target(s), validated pairings; for Confirmation of known target in Tango: repeat hitters of the peptide library screen, the value names the known receptor(s) confirmed in the β-arrestin recruitment (Tango) screen
# Method in brief: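 HTLA cells (HEK293 with tTA-dependent luciferase and β-arrestin2-TEV) transiently transfected with Tango GPCR constructs, then stimulated overnight with 10 μM peptides in 1% dFBS medium. Luciferase luminescence read after 15–20 min Bright-Glo incubation at room temperature.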
Compound,DMR assays Emax (peak or AUC) [1],Internalization assays Emax (AUC) [3],"pEC50, Tango (fold over basal) [6]",Active at: (activity in b-arrestin recruitment assays) [7],Confirmation of known target in Tango [7],further results
CC[C@H](C)[C@H](NC(=O)[C@H](CCCNC(=N)N)NC(=O)[C@H](C)NC(=O)CNC(=O)[C@H](CCCCN)NC(=O)[C@H](CCCNC(=N)N)NC(=O)[C@@H](NC(=O)[C@H](C)NC(=O)[C@@H]1CSSC[C@H](NC(=O)[C@H](CCSC)NC(=O)[C@@H]2CCCN2C(=O)[C@@H](NC(=O)[C@H](CCC(N)=O)NC(=O)CNC(=O)[C@@H](N)Cc2ccc(O)cc2)C(C)C)C(=O)N[C@@H](CC(=O)O)C(=O)N[C@@H](C)C(=O)NCC(=O)N[C@@H](CCC(=O)O)C(=O)N[C@@H](CCC(N)=O)C(=O)N1)C(C)C)C(N)=O [139 original] (H-YGQVPMCDAGEQCAVRKGARI-NH2; disulfide 7-13; N-terminus assumed),944453,9.4,,,,Emax ([2]; read-out: Calcium mobilization assays Emax (% ionomycin)): 73.1%; EC50 ([2]; read-out: Calcium mobilization assays pEC50 (converted)): 7.08 µM
CC[C@H](C)[C@H](NC(=O)[C@H](CCCNC(=N)N)NC(=O)[C@H](C)NC(=O)CNC(=O)[C@H](CCCCN)NC(=O)[C@H](CCCNC(=N)N)NC(=O)[C@@H](NC(=O)[C@H](C)NC(=O)[C@@H]1CSSC[C@H](NC(=O)[C@H](CCSC)NC(=O)[C@@H]2CCCN2C(=O)[C@@H](NC(=O)[C@H](CCC(N)=O)NC(=O)CNC(=O)[C@@H](N)Cc2ccc(O)cc2)C(C)C)C(=O)N[C@@H](CC(=O)O)C(=O)N[C@@H](C)C(=O)NCC(=O)N[C@@H](CCC(=O)O)C(=O)N[C@@H](CCC(N)=O)C(=O)N1)C(C)C)C(N)=O [139 resynthesized] (H-YGQVPMCDAGEQCAVRKGARI-NH2; disulfide 7-13; N-terminus and C-terminus assumed),749669,13.6,,,,GloSensor cAMP assays Emax (fold change) [4]: 25.2 fold change
AGCKNFFWKTFTSC (disulfide) [Peptide 103],,,4.33,SST2,SST2,"Emax, Tango (fold over basal) [5]: 6.6 fold over basal; pEC50, Tango (fold over basal) [5]: 4.98"
DRMPCRNFFWKTFSSCK (disulfide) [Peptide 121],,,4.96,,SST2,
KPLRKDENGTSVAEYPMSASQSNKGVDVNNAVV [Peptide 193],,,9.32,,,"Emax, Tango (fold over basal) [6]: 1.3 fold over basal"
YGGFLRRIRPKLKWDNQ [Peptide 119],,,5.04,kappa,"kappa, mu",
